Experimental data published in PubChem BioAssay (NCI).
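Values below derive from 48-hour exposures of cells grown in 96-well plates, with endpoints linearly interpolated between the two concentrations bracketing the appropriate inhibition level. The concentration for full growth arrest is given as TGI.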

Legend:
Experiment in all cases: NCI tumour cell line growth inhibition, 48 h
[1] = test system: A498 renal
[2] = test system: EKVX NSCLC
[3] = test system: SF-295 CNS
[4] = test system: SF-539 CNS
[5] = test system: UACC-257 melanoma
[6] = test system: OVCAR-5 ovarian
[7] = test system: SNB-19 CNS
[8] = test system: 786-0 renal
[9] = test system: SW-620 colon

Structure (SMILES) | TGI [1] [µM] | TGI [2] [µM] | TGI [3] [µM] | TGI [4] [µM] | TGI [5] [µM] | TGI [6] [µM] | TGI [7] [µM] | TGI [8] [µM] | TGI [9] [µM]
COS(=O)c1cc(Cl)cc(Cl)c1OC(=O)CSSCC(=O)Oc1c(Cl)cc(Cl)cc1S(=O)OC (stereo not drawn) | 54.1 | 41.9 | 67.5 | 47.6 | 65.3 | 41.2 | 49.2 | 54.5 | 58.4
C1CN2CCO[SiH](O1)OCC2 | > 100 | > 100 | > 100 | > 100 | > 100 |  | > 100 | > 100 | > 100
O=C1C=CC2(O)OCC3C=C4O[C@@H]5OC6(CCCCC6)O[C@@H]5C4[C@@H]2[C@@H]13 (stereo partly drawn) | > 100 | 78.7 | > 100 |  | 35 | > 100 | > 100 | 41.2 | 71.4
COc1ccc(/C=C/C(=O)c2c(-c3ccccc3)nn(C)c(=O)c2N2CCCCC2)cc1 |  | > 100 | 44.4 | 37.8 |  |  | 86.5 | 38.2 | > 100
Cc1nc2sccn2c1C(=O)NNC(N)=S |  | > 100 | > 100 | > 100 | > 100 | > 100 | > 100 | > 100 | > 100
N#Cc1c(-c2ccccc2)c(-c2ccccc2)cc2c(=O)c3ccc(Cl)cc3[nH]c12 |  | > 100 | > 100 | > 100 | > 100 | > 100 | > 100 | > 100 | > 100
CCOC(=O)C1=C(C)N(NC(N)=O)C2(N)N(NC(N)=O)C(C)=C(C(=O)OCC)C12C#N (stereo not drawn) | > 100 | > 100 | > 100 | > 100 | > 100 | > 100 | > 100 | > 100 | > 100
N#Cc1ccccc1Sc1ccccc1N | > 100 | > 100 | > 100 | > 100 | > 100 | > 100 | > 100 | > 100 | > 100
C[n+]1cn(CC(=O)c2ccccc2)c(C(N)=O)c1N | > 100 | > 100 | > 100 | > 100 | > 100 | > 100 | > 100 | > 100 | 29.4
CCOC(=O)C1C(c2ccc(Br)cc2)N(Cc2ccccc2)C(c2ccc(Br)cc2)C(C(=O)OC)S1(=O)=O (stereo not drawn) |  | > 100 | > 100 |  | > 100 | > 100 | > 100 | > 100 | > 100
N#CC(C(=O)Nc1ccccc1)C1=C(Cl)C(=O)c2ccccc2C1=O (stereo not drawn) | > 100 | 35.1 | 36.5 | 28.8 | 12.8 | 32.2 | 36.3 | 27.7 | 50
NC1CCC2(O)c3ccccc3C2C1 (stereo not drawn) |  | > 100 | > 100 |  | > 100 |  | > 100 | > 100 | > 100
OC1=CN=C(c2ccccc2)Oc2ccccc21 | > 100 | > 100 | > 100 | 38.7 | > 100 |  | > 100 | > 100 | > 100
CCC(Oc1ccc(OC)c2c1C(=O)CCC2)C(=O)O (stereo not drawn) | > 100 | > 100 | > 100 | > 100 | > 100 | > 100 | > 100 | > 100 | > 100
CN1CCCc2nc3ccccc3n2C1 | > 100 | > 100 | > 100 | > 100 | > 100 | > 100 | > 100 | > 100 | > 100
O=[N+]([O-])c1cccnc1S(=O)(=O)c1ccccc1 | 36.6 | 14.5 | 32.5 | 24 | 33.4 | 29.4 | 34.1 | 7.09 | 8.38
CC(C)(C)C1=NO[C@H]2[C@@H](NC(=O)c3ccccc3)CC[C@@H]12 |  |  | > 100 | > 100 | > 100 | > 100 | > 100 | > 100 | > 100
COCOC1CCCC[C@@]1(OCCOCCO[C@@]1(c2ccccc2)CCCC[C@H]1OCOC)c1ccccc1 (stereo partly drawn) |  | > 100 | > 100 |  | > 100 | > 100 | > 100 | > 100 | > 100
CCCCCCCCCCCCCCCC(=O)OCC1OC(n2cc(F)c(=O)[nH]c2=O)C(NC(=O)OCc2ccccc2)C(O)C1O (stereo not drawn) | 35.5 | 52.8 | 32.5 | 30.9 |  | 39.8 | 32.4 | 36.2 | 73
